Experimental data published in ChEMBL document CHEMBL3621162, “Virtual Screening and Biological Validation of Novel Influenza Virus PA Endonuclease Inhibitors” (ACS Med Chem Lett, 2015).

What was measured:
[1] = molecular target: Polymerase acidic protein (Influenza A virus (strain A/X-31 H3N2), UniProt Q9IQ47); assay: Inhibition of recombinant Influenza virus A/X-31 N-terminal RdRp PA subunit (1 to 217) expressed in Escherichia coli using single-stranded circular DNA plasmid M13mp18 as substrate after 2 hrs by agarose gel electrophoresis; design: species or system Influenza A virus (A/X-31(H3N2))
Influenza A virus [2] = assay: Antiviral activity against Influenza A virus (A/PR/8/1934(H1N1)) infected in MDCK cells assessed as 1-log10 reduction in viral RNA copy number after 24 hrs by quantitative RT-PCR analysis; assay type: functional, organism-based; details: A/Puerto Rico/8/1934(H1N1)
Influenza A virus [3] = assay: Antiviral activity against Influenza A virus (A/PR/8/1934(H1N1)) infected in MDCK cells assessed as 2-log10 reduction in viral RNA copy number after 24 hrs by quantitative RT-PCR analysis; assay type: functional; details: A/Puerto Rico/8/1934(H1N1)
[4] = Cytotoxicity against MDCK cells assessed as cell viability measured at 24 hrs by MTS assay; assay type: cell-based, Canis lupus familiaris; details: dog
Influenza A virus [5] = assay: Antiviral activity against Influenza A virus (A/PR/8/1934(H1N1)) infected in HEK293T cells assessed as reduction in viral RNP reconstitution measured at 24 hrs by luciferase reporter gene assay; assay type: functional, organism-based; details: A/Puerto Rico/8/1934(H1N1), HEK-293T
[6] = Cytotoxicity against HEK293T cells assessed as cell viability measured at 24 hrs by MTS assay; assay type: cell-based, HEK-293T; details: human
Influenza A virus [7] = assay: Potency index, ratio of ribavirin EC90 to compound EC90 for Influenza A virus (A/PR/8/1934(H1N1)) infected in MDCK cells; assay type: functional, A/Puerto Rico/8/1934(H1N1)
Influenza A virus [8] = assay: Potency index, ratio of ribavirin EC99 to compound EC99 for Influenza A virus (A/PR/8/1934(H1N1)) infected in MDCK cells; assay type: functional, A/Puerto Rico/8/1934(H1N1)

Work on `O=C(O)CC1C(=O)NCCN1CCCc1ccccc1` (configuration not stated) yielded an IC50 [1] greater than 500 µM.
`O=C(NCCc1ccc(O)c(O)c1)c1cc2cc(O)c(O)cc2[nH]1` gave an IC50 [1] of 0.94 µM, an EC50 (Influenza A virus [2]) of 3.2 µM and an EC99 (Influenza A virus [3]) of 5.7 µM. It also gave a CC50 at 24 h [4] of no less than 50 µM, an EC50 (Influenza A virus [5]) of 16 µM and a CC50 at 24 h [6] of 110 µM. The Ratio (Influenza A virus [7]) was 2 and the Ratio (Influenza A virus [8]) was 2.
`O=C(O)C1C(C(=O)O)C(C(=O)O)C(C(=O)O)C(C(=O)O)C1C(=O)O` (configuration not stated) showed an IC50 [1] greater than 500 µM.
Work on `Cc1nc(SCc2ccccc2)nc(O)c1CC(=O)O` yielded an IC50 [1] greater than 500 µM.
In the case of `CNC(=O)c1cccc(Nc2nc(O)nc(O)c2C#N)c1`, the IC50 [1] is reported as greater than 500 µM.
Molecule `O=C(O)c1nccnc1C(=O)Nc1nc(-c2cccs2)n[nH]1` has an IC50 [1] greater than 500 µM.
For `Cc1cc(NC(=O)c2c(O)nc(O)[nH]c2=O)no1`, the IC50 [1] was greater than 500 µM.
In the case of `O=C(O)CCc1nn2c(nc1O)nc1ccccc12`, the IC50 [1] is reported as greater than 500 µM.
In the case of `O=C(O)CCc1nnc(SCc2ccc(Cl)cc2)nc1O`, the IC50 [1] is reported as greater than 500 µM.
In the case of `COc1cc2nc(N3CCOCC3)nc(N)c2cc1OC`, the IC50 [1] is reported as greater than 500 µM.
For `O=C(NCCCNC(=O)c1cc2cc(O)c(O)cc2[nH]1)c1cc2ccccc2[nH]1`, the IC50 [1] was 65 µM, the EC50 (Influenza A virus [2]) was 32 µM and the EC99 (Influenza A virus [3]) was 73 µM. For the same molecule, the CC50 at 24 h [4] was greater than 200 µM, the EC50 (Influenza A virus [5]) was 64 µM and the CC50 at 24 h [6] was greater than 200 µM.
`O=C(CC(=O)Nc1ccccc1)NNc1ccc([N+](=O)[O-])cc1` showed an IC50 [1] greater than 500 µM.
Molecule `Cc1cc(=O)oc2n[nH]c(C)c12` has an IC50 [1] greater than 500 µM.
With `O=C(NCCCCNC(=O)c1cc2cc(O)c(O)cc2[nH]1)c1cc2cc(O)c(O)cc2[nH]1` the IC50 [1] was 7 µM, the EC50 (Influenza A virus [2]) was 6.3 µM and the EC99 (Influenza A virus [3]) was 12 µM. It also gave a CC50 at 24 h [4] greater than 200 µM, an EC50 (Influenza A virus [5]) of 24 µM and a CC50 at 24 h [6] greater than 200 µM.
Work on `CCOC(=O)c1c(O)c2cc(OC)ccc2n(C)c1=O` yielded an IC50 [1] greater than 500 µM.
In the case of `O=C(O)/C(O)=C/C(=O)C1(Cc2ccc(Cl)cc2)CCN(Cc2ccccc2)CC1`, the IC50 [1] is reported as 0.48 µM, the EC50 (Influenza A virus [2]) is reported as 5.4 µM and the EC99 (Influenza A virus [3]) is reported as 8.4 µM. For the same molecule, the CC50 at 24 h [4] was 181 µM, the EC50 (Influenza A virus [5]) was 3.4 µM and the CC50 at 24 h [6] was greater than 100 µM.
`NC(=O)c1ncn([C@@H]2O[C@H](CO)[C@@H](O)[C@H]2O)n1` [RIBAVIRIN] showed an EC99 (Influenza A virus [3]) of 11 µM, a CC50 at 24 h [4] greater than 200 µM and an EC50 (Influenza A virus [5]) of 8.4 µM. For the same molecule, the CC50 at 24 h [6] was greater than 200 µM.
